How the values were obtained:
[1] = target: CDK12/CycK complex (Homo sapiens, UniProt Q9NYV4); test: Measurement of CDK12 inhibitory activity by binding assay (BODIPY-FL labeled AT-7519 high concentration conditions, 1320 nM); conditions: inhibitory rate against CDK12 at 1 μM test compound, 1320 nM BODIPY-FL-labeled AT-7519, 8 nM CDK12/CycK
Summary of the method: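 His-tagged CDK12/CycK (8 nM) was incubated with test compound, BODIPY-FL-AT-7519 tracer (1320 nM), Tb-streptavidin (0.2 nM) and biotin-anti-His antibody (0.4 nM) for 120 min at room temperature. TR-FRET ratio (BODIPY-FL/Tb) gave % inhibition versus no-compound control and 30 μM AT-7519 blank; compounds tested at 1 μM.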

[2] = tested on: A2780 cells; test: In vitro proliferation suppression test (CellTiter-Glo); type: cell-based, human; conditions: Homo sapiens, 72 h, A2780 cell proliferation inhibitory rate at 1 μM test compound, three days
Summary of the method: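 A2780 cells in RPMI1640 with 10% FBS were exposed to 1 μM compound for three days at 37° C, 5% CO2. CellTiter-Glo luminescence read; inhibition (%) calculated relative to wells without compound.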

[3] = tested on: Human breast cancer cells SUM149PT; test: Antitumor action on SUM149PT cells tumor-bearing model; type: in vivo; conditions: 60 mg/kg orally two times per day for 2 weeks; SUM149PT subcutaneous transplant in BALB/cAJcl-nu/nu mice; average tumor volume increase ratio vs control group
Method: Experimental Example 6: Antitumor Action on SUM149PT CELLS Tumor-Bearing Model
Human breast cancer cells SUM149PT were suspended in a solution of Matrigel (BD BIOSCIENCES):HBSS (Thermo Fisher Scientific)=1:1, and subcutaneously transplanted at 3×10^6 cells to the abdomen of BALB/cAJcl-nu/nu (CLEA Japan, Inc.). The tumor diameter of the engrafted tumor was measured and the tumor volume was calculated by the following formula. Tumor volume=major axis×minor axis×minor axis×(1/2)
Individuals having a tumor grown to a volume of about 120 mm^3 were selected, and 5 mice per group were used for the experiment. A suspension of the test compound in 0.5% methylcellulose solution (FUJIFILM Wako Pure Chemical Corporation) was orally administered at a dose of 60 mg/kg (10 mL/kg) two times per day for 2 weeks. The tumor volume was measured over time one day before the start of the administration, and every 4 days from day 3. The next day of the completion of medication for 14 days, the tumor diameter was finally measured and the tumor volume was calculated. The tumor proliferation rate of the test compound administration group in comparison with the control administration group was taken as an average tumor volume increase ratio T/C and calculated by the following formula. […]

CDK12/CycK complex, sequence (Q9NYV4 whole entry, species assumed): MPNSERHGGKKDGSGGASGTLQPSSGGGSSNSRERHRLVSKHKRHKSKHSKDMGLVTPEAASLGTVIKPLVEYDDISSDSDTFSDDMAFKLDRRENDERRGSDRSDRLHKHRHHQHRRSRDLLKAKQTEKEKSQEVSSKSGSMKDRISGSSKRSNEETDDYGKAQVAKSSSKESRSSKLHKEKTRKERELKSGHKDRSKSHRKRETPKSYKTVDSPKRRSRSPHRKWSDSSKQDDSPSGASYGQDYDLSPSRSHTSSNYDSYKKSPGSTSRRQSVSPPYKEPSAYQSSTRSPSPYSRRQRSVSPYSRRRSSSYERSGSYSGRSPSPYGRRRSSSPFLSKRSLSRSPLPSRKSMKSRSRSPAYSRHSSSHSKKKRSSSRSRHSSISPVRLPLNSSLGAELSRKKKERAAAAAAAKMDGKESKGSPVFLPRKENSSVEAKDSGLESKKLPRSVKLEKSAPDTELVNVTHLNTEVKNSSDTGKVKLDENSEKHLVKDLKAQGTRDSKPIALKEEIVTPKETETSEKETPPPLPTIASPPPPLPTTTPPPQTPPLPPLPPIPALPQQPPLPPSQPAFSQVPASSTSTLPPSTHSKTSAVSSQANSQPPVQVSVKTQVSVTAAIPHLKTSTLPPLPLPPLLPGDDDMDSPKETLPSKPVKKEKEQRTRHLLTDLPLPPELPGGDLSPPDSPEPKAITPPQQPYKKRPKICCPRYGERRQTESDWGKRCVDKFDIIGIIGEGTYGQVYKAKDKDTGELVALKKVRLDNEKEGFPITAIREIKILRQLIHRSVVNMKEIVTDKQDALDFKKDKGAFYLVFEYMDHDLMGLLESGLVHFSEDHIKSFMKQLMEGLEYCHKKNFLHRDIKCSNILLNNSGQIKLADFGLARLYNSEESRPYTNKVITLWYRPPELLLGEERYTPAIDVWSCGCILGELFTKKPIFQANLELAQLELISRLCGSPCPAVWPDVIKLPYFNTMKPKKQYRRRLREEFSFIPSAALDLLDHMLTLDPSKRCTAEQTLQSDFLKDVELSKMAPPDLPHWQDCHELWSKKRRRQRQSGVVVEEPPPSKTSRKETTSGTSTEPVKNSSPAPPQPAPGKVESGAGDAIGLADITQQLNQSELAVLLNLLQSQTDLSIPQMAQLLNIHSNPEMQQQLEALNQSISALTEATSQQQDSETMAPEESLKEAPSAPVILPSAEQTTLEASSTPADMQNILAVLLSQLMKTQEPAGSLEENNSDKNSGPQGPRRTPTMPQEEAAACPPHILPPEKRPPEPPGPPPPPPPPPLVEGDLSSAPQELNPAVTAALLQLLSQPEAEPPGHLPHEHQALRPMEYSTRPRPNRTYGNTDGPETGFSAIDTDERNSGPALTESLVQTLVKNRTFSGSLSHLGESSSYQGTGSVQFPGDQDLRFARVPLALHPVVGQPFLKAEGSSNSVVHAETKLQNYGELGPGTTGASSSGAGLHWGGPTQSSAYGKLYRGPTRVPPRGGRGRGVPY
CDK12/CycK complex, sequence (O75909 whole entry partner, species assumed): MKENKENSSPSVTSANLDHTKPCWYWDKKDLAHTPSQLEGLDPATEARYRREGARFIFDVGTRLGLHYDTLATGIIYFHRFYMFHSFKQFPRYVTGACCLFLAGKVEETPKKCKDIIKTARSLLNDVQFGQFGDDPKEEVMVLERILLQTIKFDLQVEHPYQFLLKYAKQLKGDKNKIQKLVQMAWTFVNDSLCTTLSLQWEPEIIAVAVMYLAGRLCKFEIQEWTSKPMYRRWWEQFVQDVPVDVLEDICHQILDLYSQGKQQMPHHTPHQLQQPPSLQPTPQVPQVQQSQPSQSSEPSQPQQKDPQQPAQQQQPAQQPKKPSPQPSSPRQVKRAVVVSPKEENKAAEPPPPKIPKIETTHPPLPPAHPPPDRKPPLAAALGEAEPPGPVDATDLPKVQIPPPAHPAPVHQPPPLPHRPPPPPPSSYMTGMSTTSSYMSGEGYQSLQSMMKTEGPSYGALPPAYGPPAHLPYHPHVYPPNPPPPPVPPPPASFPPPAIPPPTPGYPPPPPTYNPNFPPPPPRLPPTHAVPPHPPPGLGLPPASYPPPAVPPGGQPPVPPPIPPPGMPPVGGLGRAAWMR

Q: Which inhibition at 1 µM [1] does the source give for `COc1ncc(-c2cnc(N(C(=O)NCc3ccccc3)[C@H]3CC[C@H](Nc4ncc(C(F)(F)F)c(OC5COC5)n4)CC3)cn2)cn1` [Example 612, 3-benzyl-1-(5-(2-methoxypyrimidin-5-yl)pyrazin-2-yl)-1-(trans-4-((4-(oxetan-3-yloxy)-5-(trifluoromethyl)pyrimidin-2-yl)amino)cyclohexyl)urea] here?
A: 100%

Q: What about the inhibition at 1 µM [2] of the same compound?
A: 97%

Q: What about the “T/C (%)” value [3] of the same compound?
A: −22%

Reference: patent US11584737B2, “Heterocyclic compound” (TAKEDA PHARMACEUTICAL COMPANY LIMITED, priority 2018, dated 2023)
